Laboratory results from publication PMC10485887, “PET Evaluation of the Novel F-18 Labeled Reversible Radioligand [^18F]GEH200449 for Detection of Monoamine Oxidase-B in the Non-Human Primate Brain” (ACS Chemical Neuroscience, 2023).
Like-named read-outs stand apart in the source and are kept apart here.

Test system: MAO-B
Assay type: in vivo, Macaca fascicularis
Conditions: baseline
Method: At start of PET data acquisition, a sterile physiological phosphate buffer solution (pH = 7.4) of [^18F]GEH200449 (injected radioactivity, 107–167 MBq) was injected as a bolus into a sural vein. Emission data were acquired in list mode for 123 min. Arterial blood was sampled as previously described[28] using an automated blood sampling system (ABSS) during the first 3 min of each PET measurement. Subsequently, arterial blood samples (0.7–2.5 mL) were manually drawn at 7, 15, 30, 60, 90, and 120 min after injection of [^18F]GEH200449. After centrifugation, 0.15–1.0 mL of plasma was pipetted and plasma radioactivity was measured in a well counter. In addition, samples were taken directly from the ABSS at 0.5, 1, 1.5, 2, 2.5, and 3 min for cross-calibration with the well counter and for the determination of the plasma-to-blood ratio.
Dynamic images were reconstructed as previously described.[30],[31] Regions of interest (ROIs) for the whole brain and selected regions (caudate nucleus, putamen, thalamus, occipital cortex, prefrontal cortex, and cerebellum) were manually delineated on T1-weighted magnetic resonance images (MRIs) acquired as previously described.[21],[27] PET images were coregistered to the MRIs, and time-activity curves were generated by pooling ROIs for each paired anatomical region and applying the pooled ROIs to the coregistered PET images. Delineation of ROIs and image coregistrations were performed using the software PMOD v. 3.6 (PMOD Technologies, Zurich, Switzerland).
Time curves for regional [^18F]GEH200449 binding at baseline were analyzed by kinetic modeling using 1-TC and 2-TC models,[32] and VT as outcome measures. Akaike information criterion[33] and F statistics were applied to select the preferred model. Regional estimates of VT for [^18F]GEH200449 were also obtained using the Logan linear graphical method[34] with t* fixed at 40 min. The analyses were performed using the kinetic modeling tool in PMOD v. 4.3. Occupancy at [^18F]GEH200449 binding sites was estimated based on regional VT values obtained by the Logan method at baseline and after drug administration according to a graphical procedure described in the literature.[22]

For `O=c1ccoc2ccc(OCc3ccc([18F])nc3)cc12` [[^18F]GEH200449], the “2-TC parameter estimate K1” value (NHP #1, CAU) was 0.70 mL min-1 cm-3, the “2-TC parameter estimate VT” value (NHP #1, CAU) was 14.6 mL cm-3 and the “2-TC parameter estimate k2” value (NHP #1, CAU) was 0.09 min⁻¹. For the same compound, the “2-TC parameter estimate k3” value (NHP #1, CAU) was 0.034 min⁻¹, the “2-TC parameter estimate k4” value (NHP #1, CAU) was 0.037 min⁻¹ and the “2-TC parameter estimate K1” value (NHP #1, CER) was 0.47 mL min-1 cm-3. For the same compound, the “2-TC parameter estimate VT” value (NHP #1, CER) was 11.1 mL cm-3, the “2-TC parameter estimate k2” value (NHP #1, CER) was 0.07 min⁻¹ and the “2-TC parameter estimate k3” value (NHP #1, CER) was 0.021 min⁻¹. The “2-TC parameter estimate k4” value (NHP #1, CER) was 0.038 min⁻¹, the “2-TC parameter estimate K1” value (NHP #1, OC) was 0.49 mL min-1 cm-3 and the “2-TC parameter estimate VT” value (NHP #1, OC) was 10.8 mL cm-3. The “2-TC parameter estimate k2” value (NHP #1, OC) was 0.07 min⁻¹, the “2-TC parameter estimate k3” value (NHP #1, OC) was 0.016 min⁻¹ and the “2-TC parameter estimate k4” value (NHP #1, OC) was 0.024 min⁻¹. The “2-TC parameter estimate K1” value (NHP #1, PFC) was 0.57 mL min-1 cm-3, the “2-TC parameter estimate VT” value (NHP #1, PFC) was 11.0 mL cm-3 and the “2-TC parameter estimate k2” value (NHP #1, PFC) was 0.09 min⁻¹. The “2-TC parameter estimate k3” value (NHP #1, PFC) was 0.028 min⁻¹, the “2-TC parameter estimate k4” value (NHP #1, PFC) was 0.037 min⁻¹ and the “2-TC parameter estimate K1” value (NHP #1, PUT) was 0.71 mL min-1 cm-3. For the same compound, the “2-TC parameter estimate VT” value (NHP #1, PUT) was 14.1 mL cm-3, the “2-TC parameter estimate k2” value (NHP #1, PUT) was 0.09 min⁻¹ and the “2-TC parameter estimate k3” value (NHP #1, PUT) was 0.025 min⁻¹. The “2-TC parameter estimate k4” value (NHP #1, PUT) was 0.029 min⁻¹, the “2-TC parameter estimate K1” value (NHP #1, THA) was 0.59 mL min-1 cm-3 and the “2-TC parameter estimate VT” value (NHP #1, THA) was 15.0 mL cm-3. The “2-TC parameter estimate k2” value (NHP #1, THA) was 0.06 min⁻¹, the “2-TC parameter estimate k3” value (NHP #1, THA) was 0.008 min⁻¹ and the “2-TC parameter estimate k4” value (NHP #1, THA) was 0.016 min⁻¹. The “2-TC parameter estimate K1” value (NHP #1, WB) was 0.51 mL min-1 cm-3, the “2-TC parameter estimate VT” value (NHP #1, WB) was 10.9 mL cm-3 and the “2-TC parameter estimate k2” value (NHP #1, WB) was 0.09 min⁻¹. For the same compound, the “2-TC parameter estimate k3” value (NHP #1, WB) was 0.025 min⁻¹, the “2-TC parameter estimate k4” value (NHP #1, WB) was 0.031 min⁻¹ and the “2-TC parameter estimate K1” value (NHP #3, CAU) was 0.65 mL min-1 cm-3. The “2-TC parameter estimate VT” value (NHP #3, CAU) was 19.2 mL cm-3, the “2-TC parameter estimate k2” value (NHP #3, CAU) was 0.04 min⁻¹ and the “2-TC parameter estimate k3” value (NHP #3, CAU) was 0.006 min⁻¹. The “2-TC parameter estimate k4” value (NHP #3, CAU) was 0.029 min⁻¹, the “2-TC parameter estimate K1” value (NHP #3, CER) was 0.44 mL min-1 cm-3 and the “2-TC parameter estimate VT” value (NHP #3, CER) was 13.9 mL cm-3. The “2-TC parameter estimate k2” value (NHP #3, CER) was 0.04 min⁻¹, the “2-TC parameter estimate k3” value (NHP #3, CER) was 0.005 min⁻¹ and the “2-TC parameter estimate k4” value (NHP #3, CER) was 0.016 min⁻¹. The “2-TC parameter estimate K1” value (NHP #3, OC) was 0.38 mL min-1 cm-3, the “2-TC parameter estimate VT” value (NHP #3, OC) was 11.2 mL cm-3 and the “2-TC parameter estimate k2” value (NHP #3, OC) was 0.04 min⁻¹. For the same compound, the “2-TC parameter estimate k3” value (NHP #3, OC) was 0.003 min⁻¹, the “2-TC parameter estimate k4” value (NHP #3, OC) was 0.012 min⁻¹ and the “2-TC parameter estimate K1” value (NHP #3, PFC) was 0.49 mL min-1 cm-3. For the same compound, the “2-TC parameter estimate VT” value (NHP #3, PFC) was 13.5 mL cm-3, the “2-TC parameter estimate k2” value (NHP #3, PFC) was 0.05 min⁻¹ and the “2-TC parameter estimate k3” value (NHP #3, PFC) was 0.006 min⁻¹. The “2-TC parameter estimate k4” value (NHP #3, PFC) was 0.017 min⁻¹, the “2-TC parameter estimate K1” value (NHP #3, PUT) was 0.70 mL min-1 cm-3 and the “2-TC parameter estimate VT” value (NHP #3, PUT) was 16.7 mL cm-3. For the same compound, the “2-TC parameter estimate k2” value (NHP #3, PUT) was 0.05 min⁻¹, the “2-TC parameter estimate k3” value (NHP #3, PUT) was 0.007 min⁻¹ and the “2-TC parameter estimate k4” value (NHP #3, PUT) was 0.029 min⁻¹. For the same compound, the “2-TC parameter estimate K1” value (NHP #3, THA) was 0.58 mL min-1 cm-3, the “2-TC parameter estimate VT” value (NHP #3, THA) was 18.5 mL cm-3 and the “2-TC parameter estimate k2” value (NHP #3, THA) was 0.04 min⁻¹. The “2-TC parameter estimate k3” value (NHP #3, THA) was 0.007 min⁻¹, the “2-TC parameter estimate k4” value (NHP #3, THA) was 0.023 min⁻¹ and the “2-TC parameter estimate K1” value (NHP #3, WB) was 0.48 mL min-1 cm-3. The “2-TC parameter estimate VT” value (NHP #3, WB) was 12.6 mL cm-3, the “2-TC parameter estimate k2” value (NHP #3, WB) was 0.05 min⁻¹ and the “2-TC parameter estimate k3” value (NHP #3, WB) was 0.010 min⁻¹. The “2-TC parameter estimate k4” value (NHP #3, WB) was 0.029 min⁻¹, the “2-TC parameter estimate K1” value (NHP #4, CAU) was 0.50 mL min-1 cm-3 and the “2-TC parameter estimate VT” value (NHP #4, CAU) was 19.9 mL cm-3. The “2-TC parameter estimate k2” value (NHP #4, CAU) was 0.05 min⁻¹, the “2-TC parameter estimate k3” value (NHP #4, CAU) was 1.087 min⁻¹ and the “2-TC parameter estimate k4” value (NHP #4, CAU) was 1.229 min⁻¹. The “2-TC parameter estimate K1” value (NHP #4, CER) was 0.32 mL min-1 cm-3.
